From US11827624B2, “Covalent immune recruiter compounds for immune cell recognition and associated uses” (McMaster University, priority 2020, dated 2023)
Where “and” joins values, the source holds several entries; their conditions need not be identical. Identical values can stand only once.

Tested on: humanized anti-DNP SPE7 (mmAb)
Assay: BLI covalent labeling kinetics assay on IgG Fc capture probes, mmAb
Format: binding
Protocol: Kinetic assays to characterize the second order rate constant (kinact/KI) describing the CIR+Ab labeling reaction involved incubating increasing concentrations of CIR 3 or CIR 5 with a fixed concentration (75 nM) of anti-DNP mmAb in solution, for different periods of time. PSMA binding to CIR-Ab complexes increases the total mass associated with the probe surface leading to signal increases (nm shift). CIR 3 (500 nM) and 75 nM of either mmAb or mAb (AcroBiosystems Catalog #DNP-M2) was reacted in 1× Kinetics Buffer (ForteBio) for four hours prior to the experiment. IgG Fc capture (ProG) probes from ForteBio were placed in 1× Kinetics Buffer for 20 minutes prior to the experiment for wetting. The experiment was conducted using an Octet Red96 (ForteBio), where the acquisition rate was set to 5 Hz and the temperature was held at 25° C. The plate shaker setting was 1000 RPM. A volume of 250 μL of each solution was loaded onto a black flat-bottom 96-well plate (Grenier). The experiment began by placing the ProG probes in 1×Kinetics Buffer for four minutes to establish a baseline. Next, the probes were placed into the CIR 3 and anti-DNP antibody reaction mixture to load the covalent complex (CIR-Ab) onto the probe. Next, the probes were placed in a solution of 5 mM DNP-glycine competitor in 1×Kinetics Buffer in order to disrupt any non-covalent or non-specific binding. The baseline was re-established by then placing the probes in 1× Kinetics Buffer for 0.5 minutes. To measure PSMA association, the probes were placed in a solution of 500 nM human PSMA protein in 1× Kinetics Buffer for 10 minutes. The probes were then placed in 1×Kinetics Buffer for 10 minutes to measure dissociation. The raw nm shift signal for the association and dissociation step obtained by the Octet Red96 was first baselined to the beginning of the association step (t=0 second) by subtracting the association signal at t=0 from the measured signal at each time point. The Kd was determined by fitting both the association and dissociation curves using the ‘association then dissociation’ binding model in GraphPad Prism 8. The experiment was repeated once for a total of two replicates.
The specific labelling of an antibody by a CIR occurs via a two-step mechanism. In the first step, the CIR binds to the antibody via its ABD and forms a reversible complex. […] This second order rate constant was determined by monitoring covalent product (CIR-Ab) formation as a function of time via BLI using IgG Fc capture probes (note: a non-specific labeling reaction occurs independent of binding to the DNP binding site with any biological nucleophile and follows second order kinetics without saturation). […]

SMILES: O=C(O)CC[C@H](NC(=O)N[C@@H](CCCCNC(=O)NCCOCCOCCOCCOCCOCCOCCOCCOC(=O)n1cnc(CCNC(=O)CNc2ccc([N+](=O)[O-])cc2[N+](=O)[O-])c1)C(=O)O)C(=O)O [CIR 3]
- covalent reaction selectivity at excess CIR (20-fold excess (1.5 μM), mAb and mmAb): high covalent reaction selectivity for the DNP hapten binding site on both mAb and mmAb was observed
- Kinact/Kl ^c (mmAb): 12000 ± 1000 M⁻¹ s⁻¹
- Kinact^c (mmAb, 75 nM antibody): 4.0 × 10^−4 ± 0 s^−1
- Ki (mmAb, read-out: Kl ^c): ~0.03 µM and 0.03 µM
